Source: ChEMBL document CHEMBL1201862, “PubChem BioAssay data set” (2004)
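Results reflect a 48-hour exposure of cells in 96-well plates to compound at five concentrations. GI50 marks 50% less growth.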 Active and inactive are the calls of the source. Cut-off read from the data, not from the text of the source: active = GI50 up to about 1.1 µM and inactive = higher.

What was measured:
Assay in all cases: NCI anticancer screen, dose series, 48 h
A498 = system: A498
OVCAR-5 = system: OVCAR-5
HOP-62 = system: HOP-62
OVCAR-3 = system: OVCAR-3
LOX IMVI = system: LOX IMVI
HCT-15 = system: HCT-15
RXF 393 = system: RXF 393
NCI-H226 = system: NCI-H226
UACC-257 = system: UACC-257
IGROV-1 = system: IGROV-1
SK-OV-3 = system: SK-OV-3
T47D = system: T47D
SF-295 = system: SF-295
NCI/ADR-RES = system: NCI/ADR-RES
KM12 = system: KM12
SK-MEL-5 = system: SK-MEL-5
MCF7 = system: MCF7
HCT-116 = system: HCT-116
MDA-MB-231 = system: MDA-MB-231
MDA-MB-435 = system: MDA-MB-435
SN12C = system: SN12C
HT-29 = system: HT-29
BT-549 = system: BT-549
NCI-H460 = system: NCI-H460
Malme-3M = system: Malme-3M
ACHN = system: ACHN
K562 = system: K562
786-0 = system: 786-0
A549 = system: A549
SNB-75 = system: SNB-75
TK-10 = system: TK-10
PC-3 = system: PC-3
NCI-H23 = system: NCI-H23
OVCAR-4 = system: OVCAR-4
SK-MEL-2 = system: SK-MEL-2
DU-145 = system: DU-145
UACC-62 = system: UACC-62
U-251 = system: U-251
SK-MEL-28 = system: SK-MEL-28
SNB-19 = system: SNB-19
COLO 205 = system: COLO 205
NCI-H522 = system: NCI-H522
SF-268 = system: SF-268
MDA-N = system: MDA-N
EKVX = system: EKVX
SW-620 = system: SW-620
SF-539 = system: SF-539
CAKI-1 = system: CAKI-1
Hs-578T = system: Hs-578T
HOP-92 = system: HOP-92
HL-60 = system: HL-60
RPMI-8226 = system: RPMI-8226
OVCAR-8 = system: OVCAR-8
M14 = system: M14
MOLT-4 = system: MOLT-4
CCRF-CEM = system: CCRF-CEM
SR = system: SR
UO-31 = system: UO-31
HCC 2998 = system: HCC 2998

## Cc1sc2ccccc2[n+]1CCC(=O)O
A498
  GI50: > 100 µM (inactive)
OVCAR-5
  GI50: > 100 µM (inactive)
HOP-62
  GI50: > 100 µM (inactive)
OVCAR-3
  GI50: > 100 µM (inactive)
LOX IMVI
  GI50: > 100 µM (inactive)
HCT-15
  GI50: > 100 µM
RXF 393
  GI50: > 100 µM (inactive)
NCI-H226
  GI50: > 100 µM (inactive)
UACC-257
  GI50: > 100 µM (inactive)
IGROV-1
  GI50: > 100 µM (inactive)
SK-OV-3
  GI50: > 100 µM (inactive)
T47D
  GI50: > 100 µM (inactive)
SF-295
  GI50: > 100 µM (inactive)
NCI/ADR-RES
  GI50: > 100 µM (inactive)
KM12
  GI50: > 100 µM (inactive)
SK-MEL-5
  GI50: > 100 µM (inactive)
MCF7
  GI50: > 100 µM (inactive)
HCT-116
  GI50: > 100 µM (inactive)
MDA-MB-231
  GI50: > 100 µM (inactive)
MDA-MB-435
  GI50: > 100 µM (inactive)
SN12C
  GI50: > 100 µM (inactive)
HT-29
  GI50: > 100 µM (inactive)
BT-549
  GI50: > 100 µM (inactive)
NCI-H460
  GI50: > 100 µM (inactive)
Malme-3M
  GI50: > 100 µM (inactive)
ACHN
  GI50: > 100 µM (inactive)
K562
  GI50: 6.67 µM (inactive)
786-0
  GI50: > 100 µM (inactive)
A549
  GI50: > 100 µM (inactive)
SNB-75
  GI50: > 100 µM (inactive)
TK-10
  GI50: > 100 µM (inactive)
PC-3
  GI50: > 100 µM (inactive)
NCI-H23
  GI50: > 100 µM (inactive)
OVCAR-4
  GI50: > 100 µM (inactive)
SK-MEL-2
  GI50: > 100 µM (inactive)
DU-145
  GI50: > 100 µM (inactive)
UACC-62
  GI50: > 100 µM (inactive)
U-251
  GI50: > 100 µM (inactive)
SK-MEL-28
  GI50: > 100 µM (inactive)
SNB-19
  GI50: > 100 µM (inactive)
COLO 205
  GI50: > 100 µM (inactive)
NCI-H522
  GI50: > 100 µM (inactive)
SF-268
  GI50: > 100 µM (inactive)
MDA-N
  GI50: > 100 µM (inactive)
EKVX
  GI50: > 100 µM (inactive)
SW-620
  GI50: > 100 µM (inactive)
SF-539
  GI50: > 100 µM (inactive)
CAKI-1
  GI50: > 100 µM (inactive)
Hs-578T
  GI50: > 100 µM (inactive)
HOP-92
  GI50: > 100 µM (inactive)
HL-60
  GI50: 11.5 µM (inactive)
RPMI-8226
  GI50: > 100 µM (inactive)
OVCAR-8
  GI50: > 100 µM (inactive)
M14
  GI50: > 100 µM (inactive)

## Cc1cc(C)c(C(=O)c2nnc3ccccc3c2N)c(C)c1
A498
  GI50: 26.9 µM (inactive)
OVCAR-5
  GI50: 15.8 µM (inactive)
MOLT-4
  GI50: 45.4 µM (inactive)
HOP-62
  GI50: 13.6 µM (inactive)
OVCAR-3
  GI50: 16.3 µM (inactive)
LOX IMVI
  GI50: 16 µM (inactive)
NCI-H226
  GI50: 16.5 µM (inactive)
UACC-257
  GI50: 37.9 µM (inactive)
IGROV-1
  GI50: 15.3 µM (inactive)
SK-OV-3
  GI50: 32.4 µM (inactive)
T47D
  GI50: 16.6 µM (inactive)
NCI/ADR-RES
  GI50: 24.3 µM (inactive)
KM12
  GI50: 16.4 µM (inactive)
SK-MEL-5
  GI50: 13.5 µM (inactive)
HCT-116
  GI50: 10.3 µM (inactive)
MDA-MB-231
  GI50: 16.9 µM (inactive)
MDA-MB-435
  GI50: 15.8 µM (inactive)
SN12C
  GI50: 15.3 µM (inactive)
HT-29
  GI50: 25.5 µM (inactive)
BT-549
  GI50: 63.1 µM (inactive)
ACHN
  GI50: 23.1 µM (inactive)
786-0
  GI50: 12.3 µM (inactive)
A549
  GI50: 23.3 µM (inactive)
SNB-75
  GI50: 27.5 µM (inactive)
PC-3
  GI50: 17.4 µM (inactive)
NCI-H23
  GI50: 22.1 µM (inactive)
SK-MEL-2
  GI50: 14.9 µM (inactive)
DU-145
  GI50: 27 µM (inactive)
UACC-62
  GI50: 16.4 µM (inactive)
U-251
  GI50: 28.7 µM (inactive)
SK-MEL-28
  GI50: 17 µM (inactive)
SNB-19
  GI50: 35.8 µM (inactive)
COLO 205
  GI50: 15.2 µM (inactive)
SF-268
  GI50: 48.3 µM (inactive)
MDA-N
  GI50: 16.7 µM (inactive)
SW-620
  GI50: 26.7 µM (inactive)
CAKI-1
  GI50: 19.3 µM (inactive)
CCRF-CEM
  GI50: 31 µM (inactive)
Hs-578T
  GI50: 24 µM (inactive)
HOP-92
  GI50: 3.65 µM (inactive)
HL-60
  GI50: 7.55 µM (inactive)
SR
  GI50: 24 µM (inactive)
RPMI-8226
  GI50: 24.9 µM (inactive)
M14
  GI50: 13.9 µM (inactive)

## COC(=O)C1CCCN1C(=O)OC(C)(C)C (configuration not stated)
OVCAR-5
  GI50: > 100 µM (inactive)
MOLT-4
  GI50: 23.3 µM (inactive)
HOP-62
  GI50: > 100 µM (inactive)
OVCAR-3
  GI50: > 100 µM (inactive)
LOX IMVI
  GI50: > 100 µM (inactive)
HCT-15
  GI50: > 100 µM
RXF 393
  GI50: > 100 µM (inactive)
NCI-H226
  GI50: > 100 µM (inactive)
UACC-257
  GI50: > 100 µM (inactive)
IGROV-1
  GI50: > 100 µM (inactive)
SK-OV-3
  GI50: > 100 µM (inactive)
T47D
  GI50: > 100 µM (inactive)
SF-295
  GI50: > 100 µM (inactive)
NCI/ADR-RES
  GI50: > 100 µM (inactive)
KM12
  GI50: > 100 µM (inactive)
SK-MEL-5
  GI50: > 100 µM (inactive)
MCF7
  GI50: > 100 µM (inactive)
HCT-116
  GI50: > 100 µM (inactive)
MDA-MB-231
  GI50: > 100 µM (inactive)
MDA-MB-435
  GI50: > 100 µM (inactive)
SN12C
  GI50: > 100 µM (inactive)
HT-29
  GI50: > 100 µM (inactive)
BT-549
  GI50: > 100 µM (inactive)
NCI-H460
  GI50: > 100 µM (inactive)
ACHN
  GI50: > 100 µM (inactive)
UO-31
  GI50: > 100 µM (inactive)
K562
  GI50: > 100 µM (inactive)
786-0
  GI50: > 100 µM (inactive)
A549
  GI50: > 100 µM (inactive)
SNB-75
  GI50: > 100 µM (inactive)
TK-10
  GI50: > 100 µM (inactive)
PC-3
  GI50: > 100 µM (inactive)
NCI-H23
  GI50: > 100 µM (inactive)
OVCAR-4
  GI50: > 100 µM (inactive)
SK-MEL-2
  GI50: > 100 µM (inactive)
DU-145
  GI50: > 100 µM (inactive)
UACC-62
  GI50: > 100 µM (inactive)
U-251
  GI50: > 100 µM (inactive)
SK-MEL-28
  GI50: > 100 µM (inactive)
SNB-19
  GI50: > 100 µM (inactive)
COLO 205
  GI50: > 100 µM (inactive)
SF-268
  GI50: 65.3 µM (inactive)
MDA-N
  GI50: > 100 µM (inactive)
EKVX
  GI50: > 100 µM (inactive)
SW-620
  GI50: > 100 µM (inactive)
HCC 2998
  GI50: > 100 µM (inactive)
CAKI-1
  GI50: > 100 µM (inactive)
CCRF-CEM
  GI50: > 100 µM (inactive)
SR
  GI50: > 100 µM (inactive)
